Results from patent US20060293288A1, “Use of resolvins to treat gastrointestinal diseases” (priority 2005, published 2006).
“Also recorded” adds a separate entry of the source.

What was measured:
[1] = test system: leukocyte infiltration in zymosan-induced peritonitis; test: zymosan-induced peritonitis, leukocyte (PMN) infiltration; assay type: in vivo, mice; details: for effect on PMN infiltration/migration into the peritoneum (in words): peritonitis model, mice; for relative potency in the peritonitis model: compared with RvE1 or indomethacin
Description: FIG. 1. (A) Inflammatory exudates from mice treated with EPA and aspirin generate RvE1 in vivo. (B) Inhibition of leukocyte infiltration in zymosan-induced peritonitis treated with EPA and aspirin. Mice were pre-treated for 30 min by aspirin (0.5 mg) intraperitoneally followed by EPA (0.3 mg) and zymosan. Peritoneal lavages were collected at 2 h and cells were enumerated. (n=4, *p<0.05 compared with vehicle control, **p<0.05 compared with aspirin alone). (C) Inhibition of leukocyte infiltration in zymosan-induced peritonitis. RvE1 (100 ng) was injected intravenously into tail veins followed by zymosan A into the peritoneum. Mice were sacrificed, and peritoneal lavages were collected (2 h) and cells enumerated (n=3, *p<0.01 compared with vehicle control).
Inflammatory exudates were initiated with intraperitoneal injection of 1 ml zymosan A (1 mg/ml) with 6-8-wk-old male FvB mice. Mice were pre-treated by aspirin (0.5 mg) i.p. followed by EPA (0.3 mg) and zymosan. Peritoneal lavages were collected at 2 h and cells were enumerated. Cell-free exudates were extracted by C18 solid phase extraction with deuterium-LTB4 (Cascade, UK) as an internal standard for LC-UV-MS/MS analysis using a Finnigan LCQ liquid chromatography ion trap tandem mass spectrometer equipped with a LUNA C18-2 (100×2 mm×5 μm) column and UV diode array detector using mobile phase (methanol:water:acetate at 65:35:0.01) from 0 to 8 min, ramped to methanol 8 to 30 min, with a 0.2 ml/min flow rate.

[2] = test system: dextran sodium sulfate (DSS)-induced colitis; details: cited from earlier work
TNBS-induced colitis [3] = test: grading of histologic change of the colon in TNBS colitis; assay type: in vivo, BALB/c mice; details: day 4, 1.0 μg/mouse i.p.
Description: FIG. 3. Colon histopathology from RvE1 or ATLa-treated mice. Colon section of vehicle-treated mouse (A), 4 days after the induction of colitis by TNBS (B), mice received RvE1 (C) and ATLa (D). (E) Histological scores of the colon of mice receiving vehicle, TNBS only, TNBS plus RvE1, or TNBS plus ATLa. *p<0.05 and **p<0.01, respectively.
To generate a more chronic T cell-mediated inflammation, BALB/c mice were sensitized with 150 μl of the haptenating agent 2,4,6-trinitrobenzene sulfonic acid (TNBS; Sigma-Aldrich, St. Louis, Mo.) of 2.5% in 50% ethanol by skin painting on day −7. On day 0, 150 μl of 1% TNBS in 50% ethanol was administered intrarectally via a 3.5 F catheter under anesthesia with tribromoethanol. To ensure distribution of the TNBS within the entire colon and cecum, mice were held in a vertical position for 1 min after the instillation. On day 4, mice were killed and immunopathologic characterization was performed as previously described (23).
The degree of inflammation on microscopic cross sections of the colon was graded semi quantitatively. Severity of colitis was assessed based on five histologic criteria, each graded on a […] (0=absent, 1=mild, 2=moderate, 3=severe): mononuclear inflammation, neutrophilic infiltration/crypt abscesses, crypt hyperplasia, mucosal injury/ulceration, and mucosal hypervascularity. The five scores were summed to give a total score. […]

anti-TNBS IgG = test: detection of TNP-specific antibodies in serum with ELISA; assay type: in vivo, mice; details: day 4
Description: (§1) FIG. 4. RvE1 reduces leukocyte infiltration and pro-inflammatory mediators in colitis. (A) Myeloperoxidase (MPO) activity of colons of mice treated with TNBS alone or mice given RvE1. *p<0.0001 versus mice treated with TNBS alone. (B) Anti-TNBS IgG level in serum on day 4 from mice treated with TNBS alone or receiving RvE1 as noted. *p<0.01. (C) Quantitative real time PCR analysis of mRNA expression of inflammatory mediators in colons obtained on day 4 from control mice (white column), mice treated with TNBS alone (black column) or receiving TNBS plus RvE1 (gray column). *p<0.01.
Sera were collected on day 4, and anti-trinitrophenyl residue (TNP) antibodies were determined by ELISA as previously described with a minor modification (25). Briefly, 100 mg of OVA was dissolved in 4 ml of 0.05M carbonate-bicarbonate buffer at pH 9.6 followed by adding 1 ml of TNBS 5% solution and incubating for 2 h at room temperature. TNP-OVA was dialyzed in PBS and then stored at −80° C. until use. For the detection of TNP-specific antibodies, TNP-OVA was dissolved at the concentration of 0.1 mg/ml in 0.05M carbonate-bicarbonate buffer at pH 9.6 and 100 μl was placed in each well of 96-well microtiter plates for coating. After blocking with 1% bovine serum albumin in PBS, plates were incubated with appropriately diluted serum. […]

TNBS-induced colitis [4] = test: TNBS-induced colitis (mortality, body weight, colon macroscopy); assay type: in vivo, BALB/c mice
Description: (C) Macroscopic appearance of the colon of mice receiving vehicle, TNBS only, or mice receiving RvE1 (0.05 mg/kg).
RvE1 was administered intraperitoneally (1.0 μg/mouse; 50 μg/kg) on the indicated days before the induction of colitis (prevention mode). Aspirin-triggered lipoxin A4 analog (ATLa; 15-epi-16-(p-fluoro)phenoxy-LXA4) was given at the same dose as a direct comparison with RvE1.

[5] = test system: Myeloperoxidase (MPO) activity of colons; test: myeloperoxidase (MPO) assay of colon tissue in TNBS colitis; assay type: in vivo, mice; details: versus control vehicle
Description: as §1
Each tissue sample was assessed for PMN content and infiltration. Tissues were homogenized in potassium phosphate buffer (pH 6.0) containing 0.5% hexadecyltrimethylammonium bromide, followed by three cycles of sonication and freeze-thawing. The particulate matter was removed by centrifugation (16,000 g for 20 min), and 75 μl of supernatant was added to 925 μl of potassium phosphate buffer (pH 6.0) containing 0.2 mg/ml o-dianisidine dihydrochloride (Sigma, St. Louis, Mo.) and 0.0006% hydrogen peroxide. Changes in OD were monitored at 460 nm at 25° C., at 30- and 90-s intervals. Calibration curve for conversion of MPO activities to PMN number was performed as in ref. 24.

[6] = test system: mRNA expression of inflammatory mediators in colons; test: quantitative real-time PCR of inflammatory mediators in colon; assay type: in vivo, mice; details: day 4, TNBS colitis
Description: as §1
Total RNA from colon was prepared using Trizol™ reagent (Life Technologies, Rockville, Md.). Real-time PCR was performed using the LightCycler FastStart DNA Master SYBR Green I (Roche Diagnostics GmbH, Mannheim, Germany) according to manufacturer's protocol. Primers for IFN-γ, IL-12p40, TNF-α, IL-4, TGF-β, IL-10, iNOS and glyceraldehyde-3-phosphate dehydrogenase (GAPDH) were designed as described (26). Primers for COX-2 were designed as follows: 5′-[…]-3′ and 5′-[…]-3′. Quantities of specific mRNA in the sample were measured according to the corresponding gene-specific standard curve. The relative expression of each gene was normalized against the housekeeping gene GAPDH.

gastric damage = details: induced by dextran sodium sulfate or aspirin; cited from earlier work

CC/C=C\C[C@H](O)/C=C/C=C/C=C/C(O)C/C=C\C/C=C\CCC(=O)O (stereo partly drawn) [10,17 di-HDHA, 10,17S-dihydroxy-docosa-4Z,7Z,11E,13,15E,19Z-hexaenoic acid]
effect on PMN infiltration/migration into the peritoneum (in words) [1]: inhibited both PMN migration into the peritoneum

CC/C=C\C[C@H](O)/C=C/C=C\C=C\[C@@H](O)C/C=C\CC#CCCC(=O)O [4,5-dehydro 10,17S-dihydroxy DHA]
inhibition of the PMN infiltration ([1]; 100 ng dose, murine zymosan A-induced peritonitis): 40%

COc1ccc2c(c1)c(CC(=O)O)c(C)n2C(=O)c1ccc(Cl)cc1 [indomethacin, reference compound]
reduction of leukocyte numbers in the exudate ([1]; zymosan peritonitis, dose not given): approximately 20%

O=C(O)CCC[C@H](O)[C@H](O)/C=C/C=C/C=C\C=C\[C@H](O)COc1ccc(F)cc1 [ATLa, 15-epi-16-(p-fluoro)phenoxy-LXA4, reference compound]
protection against DSS-induced colitis [2]: protective | histologic features of colitis (TNBS-induced colitis [3]): dramatic protection

CC[C@@H](O)/C=C/C=C\C[C@@H](O)/C=C/C=C/C=C\[C@@H](O)CCCC(=O)O [RvE1, 5S,12R,18R-trihydroxy-6Z,8E,10E,14Z,16E-eicosapentaenoic acid]
serum anti-TNBS IgG level (anti-TNBS IgG): decreased | reduction of leukocyte infiltration ([1]; 100 ng/mouse intravenously, zymosan peritonitis, lavage at 2 h): 50% | relative potency in the peritonitis model [1]: more potent than indomethacin | protection against the development of TNBS colitis (TNBS-induced colitis [4]; 0.05 mg/kg): complete protection | overall mortality (TNBS-induced colitis [4]; RvE1 1.0 μg/mouse (0.05 mg/kg) i.p., TNBS alone 62.5%): 25% | body weight loss (TNBS-induced colitis [4]; RvE1 1 μg/mouse or 0.05 mg/kg, versus TNBS with vehicle): less weight loss | shortening and thickening of the colon (TNBS-induced colitis [4]; RvE1 0.05 mg/kg): did not exhibit significant shortening and thickening of the colon | survival rate (TNBS-induced colitis [4]; versus non-treated mice): significantly higher | myeloperoxidase (MPO) activity in colon [5]: significantly lower levels | histologic features of colitis (TNBS-induced colitis [3]): less severe histologic features of colitis | COX-2 mRNA level in colon [6]: significant reduction | IFN-γ mRNA level in colon [6]: direct effects were not observed | IL-4 mRNA level in colon [6]: direct effects were not observed | IL-10 mRNA level in colon [6]: direct effects were not observed | IL-12p40 mRNA level in colon [6]: significant reduction | TGF-β mRNA level in colon [6]: did not show significant differences | TNF-α mRNA level in colon ([6]; 0.05 mg/kg): significant reduction; also recorded: dramatic decrease | iNOS mRNA level in colon ([6]; 0.05 mg/kg): significant reduction; also recorded: dramatic decrease

CCCCC[C@@H](O)/C=C/C=C\C=C\C=C\[C@@H](O)[C@@H](O)CCCC(=O)O [15-epi-lipoxin A4]
protection against gastric damage (gastric damage): protective

CC[C@@H](O)/C=C/C=C\C/C=C\C/C=C\C/C=C\CCCC(=O)O [18R-HEPE, reference compound]
relative potency in the peritonitis model [1]: much less potent

CCC(O)/C=C/C=C\C/C=C\C/C=C\C=C\[C@@H](O)CCCC(=O)O (mixture of isomers) [5S,18(+/−)-diHEPA]
relative potency in the peritonitis model [1]: equipotent to Resolvin E1 | effect on PMN infiltration/migration into the peritoneum (in words) [1]: downregulation of PMN infiltration
